In US11155557B2, “Pyrazolopyrimidine compounds and methods of use thereof” (Genentech, Inc., priority 2016, dated 2021):
Like-named read-outs stand apart in the source and are kept apart here.

Assays:
[1] = biological target: isolated recombinant JAK1 kinase domain (Homo sapiens (Human), UniProt P23458); assay: JAK1 enzyme assay (Caliper LabChip, Ki); assay type: biochemical
Method: The activity of the isolated recombinant JAK1 and JAK2 kinase domain was measured by monitoring phosphorylation of a peptide derived from JAK3 ([…] fluorescently labeled on the N-terminus with 5-carboxyfluorescein) using the Caliper LabChip R technology (Caliper Life Sciences, Hopkinton, Mass.).

[2] = biological target: isolated recombinant JAK2 kinase domain (Homo sapiens (Human), UniProt O60674); assay: JAK2 enzyme assay (Caliper LabChip, Ki)
[3] = tested on: JAK1-dependent STAT6 phosphorylation in BEAS-2B human bronchial epithelial cells; assay: JAK1 pathway assay: IL-13 stimulated STAT6 phosphorylation in BEAS-2B cells; assay type: cell-based; details: BEAS-2B cells, IL-13 stimulation, read-out: IL-13 p-STAT6 BEAS-2B IC50
How it was run: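 BEAS-2B bronchial epithelial cells plated one day before, run in complete growth medium. Phospho-STAT6 in lysates measured by MesoScale Discovery; EC50 reported.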

Chain of isolated recombinant JAK2 kinase domain (O60674 849-1124): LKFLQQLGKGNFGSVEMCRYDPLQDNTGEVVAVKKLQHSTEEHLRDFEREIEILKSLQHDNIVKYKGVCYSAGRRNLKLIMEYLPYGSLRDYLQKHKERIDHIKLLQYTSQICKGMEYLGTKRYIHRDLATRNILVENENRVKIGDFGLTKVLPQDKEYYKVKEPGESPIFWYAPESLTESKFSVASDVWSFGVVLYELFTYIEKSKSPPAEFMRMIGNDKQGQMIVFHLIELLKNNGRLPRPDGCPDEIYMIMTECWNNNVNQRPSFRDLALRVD
Chain of isolated recombinant JAK1 kinase domain (P23458 875-1153): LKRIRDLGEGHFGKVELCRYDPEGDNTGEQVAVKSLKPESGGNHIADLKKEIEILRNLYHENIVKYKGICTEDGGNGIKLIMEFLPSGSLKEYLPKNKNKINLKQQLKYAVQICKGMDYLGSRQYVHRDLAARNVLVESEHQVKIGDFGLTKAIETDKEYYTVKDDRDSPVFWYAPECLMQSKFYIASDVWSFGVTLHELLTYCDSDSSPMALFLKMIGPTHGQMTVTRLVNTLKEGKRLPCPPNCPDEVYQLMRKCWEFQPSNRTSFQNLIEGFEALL

| Structure (SMILES) | Ki [1] [nM] | Ki ([2]; read-out: JAK2 Ki) [nM] | Ki [2] [nM] | IC50 ([3]; Homo sapiens, BEAS-2B) [nM] | IC50 [3] [nM] |
| --- | --- | --- | --- | --- | --- |
| COC(=O)Cn1cc(NC(=O)c2cnn3cccnc23)c(-c2cc3sc(C#N)cc3cc2OC(F)F)n1 [Example 19, Methyl 2-(3-(2-cyano-5-(difluoromethoxy)benzo[b]thiophen-6-yl)-4-(pyrazolo[1,5-a]pyrimidine-3-carboxamido)-1H-pyrazol-1-yl)acetate] | 0.3 | 0.33 | – | 21 | – |
| CN(C)C(=O)Cn1cc(NC(=O)c2cnn3cccnc23)c(-c2cc3cnsc3cc2OC(F)F)n1 [Example 143, N-[3-[6-(difluoromethoxy)-1,2-benzothiazol-5-yl]-1-[2-(dimethylamino)-2-oxo-ethyl]pyrazol-4-yl]pyrazolo[1,5-a]pyrimidine-3-carboxamide] | 0.22 | 0.97 | – | 13 | – |
| CCN1CCN(C(=O)Cn2cc(NC(=O)c3cnn4cccnc34)c(-c3cc4ccccc4cc3OC(F)F)n2)CC1 [Example 67, N-[3-[3-(difluoromethoxy)-2-naphthyl]-1-[2-(4-ethylpiperazin-1-yl)-2-oxo-ethyl]pyrazol-4-yl]pyrazolo[1,5-a]pyrimidine-3-carboxamide] | 2.11 | – | 4.07 | 53 | – |
| CN1CCCC1Cn1cc(NC(=O)c2cnn3cccnc23)c(-c2cc3cn[nH]c3cc2OC(F)F)n1 (racemic) [Example 75, N-[3-[6-(difluoromethoxy)-1H-indazol-5-yl]-1-[(1-methylpyrrolidin-2-yl)methyl]pyrazol-4-yl]pyrazolo[1,5-a]pyrimidine-3-carboxamide] | 0.31 | 0.26 | – | 11 | – |
| O=C(Nc1cn(CC(=O)N2CCC(CN3CCOCC3)CC2)nc1-c1cc2c(cc1OC(F)F)NCCO2)c1cnn2cccnc12 [Example 44, N-[3-[6-(difluoromethoxy)-3,4-dihydro-2H-1,4-benzoxazin-7-yl]-1-[2-[4-(morpholinomethyl)-1-piperidyl]-2-oxo-ethyl]pyrazol-4-yl]pyrazolo[1,5-a]pyrimidine-3-carboxamide] | 0.34 | 0.51 | – | 45 | – |
| COc1cc2sc(C#N)cc2cc1-c1n[nH]cc1NC(=O)c1cnn2cccnc12 [Example 24, N-(3-(2-cyano-6-methoxybenzo[b]thiophen-5-yl)-H-pyrazol-4-yl)pyrazolo[1,5-a]pyrimidine-3-carboxamide] | 0.41 | 0.27 | – | 14 | – |
| O=C(Nc1cn(CC(=O)N2CCC(F)(F)C2)nc1-c1cc2c(cc1OC(F)F)NCCO2)c1cnn2cccnc12 [Example 132, N-[3-[6-(difluoromethoxy)-3,4-dihydro-2H-1,4-benzoxazin-7-yl]-1-[2-(3,3-difluoropyrrolidin-1-yl)-2-oxo-ethyl]pyrazol-4-yl]pyrazolo[1,5-a]pyrimidine-3-carboxamide] | 0.36 | 0.4 | – | 31 | – |
| Cn1nnc(Cn2cc(NC(=O)c3cnn4cccnc34)c(-c3cc4c(cc3OC(F)F)NCCO4)n2)n1 [Example 136, N-[3-[6-(difluoromethoxy)-3,4-dihydro-2H-1,4-benzoxazin-7-yl]-1-[(2-methyltetrazol-5-yl)methyl]pyrazol-4-yl]pyrazolo[1,5-a]pyrimidine-3-carboxamide] | 0.23 | 0.17 | – | 21 | – |
| Cn1cc(NC(=O)c2cnn3cccnc23)c(-c2cc3ccccc3cc2OC(F)F)n1 [Example 4, N-(3-(3-(difluoromethoxy)naphthalen-2-yl)-1-methyl-1H-pyrazol-4-yl)pyrazolo[1,5-a]pyrimidine-3-carboxamide] | 0.22 | 0.12 | – | 22 | – |
| Cn1cc(NC(=O)c2cnn3cccnc23)c(-c2cc3c(cc2OC(F)F)NCC(C)(C)O3)n1 [Example 149, N-(3-(6-(difluoromethoxy)-2,2-dimethyl-3,4-dihydro-2H-benzo[b][1,4]oxazin-7-yl)-1-methyl-1H-pyrazol-4-yl)pyrazolo[1,5-a]pyrimidine-3-carboxamide] | 1.33 | 0.64 | – | 43 | – |
| CCN1CCN(C(=O)Cn2cc(NC(=O)c3cnn4cccnc34)c(-c3cc4cn[nH]c4cc3OC(F)F)n2)CC1 [Example 53, N-[3-[6-(difluoromethoxy)-1H-indazol-5-yl]-1-[2-(4-ethylpiperazin-1-yl)-2-oxo-ethyl]pyrazol-4-yl]pyrazolo[1,5-a]pyrimidine-3-carboxamide] | 0.25 | 0.39 | – | 88 | – |

Stronger by Ki [1], values ahead:

| Ki [1] [nM] | Ki ([2]; read-out: JAK2 Ki) [nM] | Ki [2] [nM] | Structure (SMILES) | IC50 ([3]; Homo sapiens, BEAS-2B) [nM] | IC50 [3] [nM] |
| --- | --- | --- | --- | --- | --- |
| 0.2 | 0.21 | – | CC1CSc2cc(-c3nn(CC(=O)N4CC=CCC4)cc3NC(=O)c3cnn4cccnc34)c(OC(F)F)cc2N1 (single isomer, unassigned) [Example 111, N-[3-[6-(difluoromethoxy)-3-methyl-3,4-dihydro-2H-1,4-benzothiazin-7-yl]-1-[2-(3,6-dihydro-2H-pyridin-1-yl)-2-oxo-ethyl]pyrazol-4-yl]pyrazolo[1,5-a]pyrimidine-3-carboxamide] | 15 | – |
| 0.19 | 0.23 | – | CC1CSc2cc(-c3nn(CC(=O)N4CCCCC4)cc3NC(=O)c3cnn4cccnc34)c(OC(F)F)cc2N1 (single isomer, unassigned) [Example 108, N-[3-[6-(difluoromethoxy)-3-methyl-3,4-dihydro-2H-1,4-benzothiazin-7-yl]-1-[2-oxo-2-(1-piperidyl)ethyl]pyrazol-4-yl]pyrazolo[1,5-a]pyrimidine-3-carboxamide] | – | 12 |
| 0.18 | 0.13 | – | CNCCn1cc(NC(=O)c2cnn3cccnc23)c(-c2cc3c(cc2OC(F)F)NC(=O)CS3)n1 [Example 79, N-[3-[6-(difluoromethoxy)-3-oxo-4H-1,4-benzothiazin-7-yl]-1-[2-(methylamino)ethyl]pyrazol-4-yl]pyrazolo[1,5-a]pyrimidine-3-carboxamide] | 97 | – |
| 0.17 | 0.09 | – | O=C(Nc1cn(C2CCOC2=O)nc1-c1cc2c(cc1OC(F)F)NCCS2)c1cnn2cccnc12 (single isomer, unassigned) [Example 141, N-[3-[6-(difluoromethoxy)-3,4-dihydro-2H-1,4-benzothiazin-7-yl]-1-(2-oxotetrahydrofuran-3-yl)pyrazol-4-yl]pyrazolo[1,5-a]pyrimidine-3-carboxamide] | 11 | – |
| 0.15 | 0.18 | – | CC1CSc2cc(-c3nn(CC(=O)N4CC=CCC4)cc3NC(=O)c3cnn4cccnc34)c(OC(F)F)cc2N1 (single isomer, unassigned) [Example 112, N-[3-[6-(difluoromethoxy)-3-methyl-3,4-dihydro-2H-1,4-benzothiazin-7-yl]-1-[2-(3,6-dihydro-2H-pyridin-1-yl)-2-oxo-ethyl]pyrazol-4-yl]pyrazolo[1,5-a]pyrimidine-3-carboxamide] | – | 10 |
| 0.15 | 0.16 | – | CC1CNc2cc(OC(F)F)c(-c3nn(CC(=O)N4CC=CCC4)cc3NC(=O)c3cnn4cccnc34)cc2S1 (single isomer, unassigned) [Example 104, N-[3-[6-(difluoromethoxy)-2-methyl-3,4-dihydro-2H-1,4-benzothiazin-7-yl]-1-[2-(3,6-dihydro-2H-pyridin-1-yl)-2-oxo-ethyl]pyrazol-4-yl]pyrazolo[1,5-a]pyrimidine-3-carboxamide] | – | 11 |
| 0.13 | 0.09 | – | CC1Sc2cc(-c3nn(C)cc3NC(=O)c3cnn4cccnc34)c(OC(F)F)cc2NC1=O (single isomer, unassigned) [Example 97, N-[3-[6-(difluoromethoxy)-2-methyl-3-oxo-4H-1,4-benzothiazin-7-yl]-1-methyl-pyrazol-4-yl]pyrazolo[1,5-a]pyrimidine-3-carboxamide] | 7 | – |
| 0.09 | 0.06 | – | O=C(Nc1c[nH]nc1-c1cc2c(cc1OC(F)F)NCCS2)c1cnn2cccnc12 [Example 12, N-(3-(6-(difluoromethoxy)-3,4-dihydro-2H-benzo[b][1,4]thiazin-7-yl)-1H-pyrazol-4-yl)pyrazolo[1,5-a]pyrimidine-3-carboxamide] | 6 | – |
| 0.09 | 0.06 | – | O=C1COc2cc(-c3n[nH]cc3NC(=O)c3cnn4cccnc34)c(OC(F)F)cc2N1 [Example 40, N-[3-[6-(difluoromethoxy)-3-oxo-4H-1,4-benzoxazin-7-yl]-1H-pyrazol-4-yl]pyrazolo[1,5-a]pyrimidine-3-carboxamide] | 67 | – |
| 0.09 | 0.08 | – | Cn1cc(NC(=O)c2cnn3cccnc23)c(-c2cc3c(cc2OC(F)F)NC(=O)CO3)n1 [Example 137, N-[3-[6-(difluoromethoxy)-3-oxo-4H-1,4-benzoxazin-7-yl]-1-methyl-pyrazol-4-yl]pyrazolo[1,5-a]pyrimidine-3-carboxamide] | 8 | – |
| 0.07 | 0.05 | – | CC1CNc2cc(OC(F)F)c(-c3n[nH]cc3NC(=O)c3cnn4cccnc34)cc2S1 (stereo not drawn) [Example 94, N-[3-[6-(difluoromethoxy)-2-methyl-3,4-dihydro-2H-1,4-benzothiazin-7-yl]-1H-pyrazol-4-yl]pyrazolo[1,5-a]pyrimidine-3-carboxamide] | – | 7 |
| 0.07 | 0.05 | – | CC1CNc2cc(OC(F)F)c(-c3n[nH]cc3NC(=O)c3cnn4cccnc34)cc2S1 (stereo not drawn) [Example 37, N-[3-[6-(difluoromethoxy)-2-methyl-3,4-dihydro-2H-1,4-benzothiazin-7-yl]-1H-pyrazol-4-yl]pyrazolo[1,5-a]pyrimidine-3-carboxamide] | 5 | – |
